Columns and labels:
[1] = target: T1, GLS1 (purified recombinant human GAC) (Homo sapiens, UniProt O94925); test: GLS1 Enzymatic Activity Assay (dual-coupled enzymatic assay); type: biochemical; settings: 50 mM potassium phosphate, 1 mM glutamine, read-out: IC50 against GLS1
T1 sequence (O94925 55-598 isoform O94925-3 limits assumed): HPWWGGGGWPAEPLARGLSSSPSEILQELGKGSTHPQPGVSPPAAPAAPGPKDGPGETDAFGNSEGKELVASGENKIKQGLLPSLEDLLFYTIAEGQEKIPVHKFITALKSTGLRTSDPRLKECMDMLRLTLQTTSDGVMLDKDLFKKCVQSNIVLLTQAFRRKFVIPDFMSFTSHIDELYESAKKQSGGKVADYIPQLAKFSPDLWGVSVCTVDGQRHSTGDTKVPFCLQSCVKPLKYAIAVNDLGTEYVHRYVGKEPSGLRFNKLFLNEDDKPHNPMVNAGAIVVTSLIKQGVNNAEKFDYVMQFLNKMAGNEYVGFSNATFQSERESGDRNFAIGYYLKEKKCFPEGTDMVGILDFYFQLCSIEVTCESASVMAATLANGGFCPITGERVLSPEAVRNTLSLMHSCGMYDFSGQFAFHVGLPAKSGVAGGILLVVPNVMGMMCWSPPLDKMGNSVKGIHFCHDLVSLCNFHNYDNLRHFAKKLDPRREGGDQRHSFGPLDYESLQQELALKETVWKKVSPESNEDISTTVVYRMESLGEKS
Method: GLS1 Enzymatic Activity Assay
The inhibition of purified recombinant human GAC by varying concentrations of inhibitors is assessed via a dual-coupled enzymatic assay. The glutamate produced by the glutaminase reaction is used by glutamate oxidase to produce α-ketoglutarate, ammonia, and hydrogen peroxide, with this hydrogen peroxide subsequently being used by horseradish peroxidase to produce resorufin in the presence of Amplex UltraRed. The assay buffer consisted of 50 mM HEPES (pH 7.4), 0.25 mM EDTA and 0.1 mM Triton X-100. GAC was incubated with potassium phosphate (10 minutes at room temperature) prior to incubation with inhibitor (10 minutes at room temperature). The final reaction conditions were as follows: 2 nM GAC, 50 mM potassium phosphate, 100 mU/ml glutamate oxidase (Sigma), 1 mM glutamine (Sigma), 100 mU/ml horseradish peroxidase (Sigma), 75 μM Amplex UltraRed (Life Technologies), and 1% (v/v) DMSO. The production of resorufin was monitored on a Perkin Elmer Envision plate reader (excitation 530 nm, emission 590 nm) either in a kinetics or endpoint mode (at 20 minutes). IC50 values were calculated using a four-parameter logistic curve fit.

A549 cells = test: Proliferation Assay (A549 viability, Cell Titer Fluor, 72 hours); type: cell-based; settings: Homo sapiens, read-out: EC50 against A549 cell proliferation
Method: A549 cells were routinely maintained in RPMI 1640 media (Gibco catalog number 11875-093) supplemented with 10% dialyzed fetal bovine serum using a humidified incubator (37° C., 5% CO2 and ambient O2). In preparation for the viability assay, cells were inoculated into 384-well black CulturPlates (Perkin Elmer) at a density of 1000 cells/well in a volume of 40 μl. Following a 24-hour incubation at 37° C., 5% CO2 and ambient 02, cells were treated with compound (10 μl) in a final DMSO concentration of 0.5% (v/v). The microplates were then incubated for 72 hours (37° C., 5% CO2 and ambient O2). Cell Titer Fluor (Promega) was subsequently added (10 μl of 6× reagent) and mixed for 15 minutes at room temperature. The plates were then incubated for 30 minutes (37° C., 5% CO2 and ambient O2) and fluorescence was subsequently read on the Perkin Elmer Envision plate reader. EC50 values were calculated using a four-parameter logistic curve fit.

`Nc1nnc(C2CCCN(c3ccc(NC(=O)Cc4cccc(OC(F)(F)F)c4)nn3)C2)s1` (stereo not drawn) [Example 13, N-(6-(3-(5-amino-1,3,4-thiadiazol-2-yl)piperidin-1-yl)pyridazin-3-yl)-2-(3-(trifluoromethoxy)phenyl)acetamide] was tested, and the IC50 [1] was 100 to 500 nM and the EC50 (A549 cells) was 500 to 5000 nM.
With `O=C(Cc1cccc(OC(F)(F)F)c1)Nc1ccc(N2CCCC(c3nnc(NC(=O)Cc4ccccn4)s3)C2)nn1` (stereo not drawn) [Example 14, 2-(pyridin-2-yl)-N-(5-(1-(6-(2-(3-(trifluoromethoxy)phenyl)acetamido)pyridazin-3-yl)piperidin-3-yl)-1,3,4-thiadiazol-2-yl)acetamide] the IC50 [1] was < 100 nM and the EC50 (A549 cells) was < 100 nM.
For `CC(=O)Nc1nnc(C2CCCN(c3ccc(NC(=O)Cc4cccc(OC(F)(F)F)c4)nn3)C2)s1` (stereo not drawn) [Example 15, N-(6-(3-(5-acetamido-1,3,4-thiadiazol-2-yl)piperidin-1-yl)pyridazin-3-yl)-2-(3-(trifluoromethoxy)phenyl)acetamide], the IC50 [1] was < 100 nM and the EC50 (A549 cells) was 100 to 500 nM.
Molecule `Nc1nnc(C2CCCN(c3nnc(NC(=O)Cc4cccc(OC(F)(F)F)c4)s3)C2)s1` (stereo not drawn) [Example 16, N-(5-(3-(5-amino-1,3,4-thiadiazol-2-yl)piperidin-1-yl)-1,3,4-thiadiazol-2-yl)-2-(3-(trifluoromethoxy)phenyl)acetamide] has an IC50 [1] of 100 to 500 nM and an EC50 (A549 cells) of 500 to 5000 nM.
`O=C(Cc1cccc(OC(F)(F)F)c1)Nc1ccc(N2CCC(c3nnc(NC(=O)Cc4ccccn4)s3)C2)nn1` (stereo not drawn) [Example 17, 2-(pyridin-2-yl)-N-(5-(1-(6-(2-(3-(trifluoromethoxy)phenyl)acetamido)pyridazin-3-yl)pyrrolidin-3-yl)-1,3,4-thiadiazol-2-yl)acetamide 2,2,2-trifluoroacetate] was tested, and the IC50 [1] was < 100 nM and the EC50 (A549 cells) was < 100 nM.
With `Cn1cc(CC(=O)Nc2nnc(C3CCN(c4ccc(NC(=O)Cc5cccc(OC(F)(F)F)c5)nn4)C3)s2)cn1` (stereo not drawn) [Example 18, 2-(1-methyl-1H-pyrazol-4-yl)-N-(5-(1-(6-(2-(3-(trifluoromethoxy)phenyl)acetamido)pyridazin-3-yl)pyrrolidin-3-yl)-1,3,4-thiadiazol-2-yl)acetamide 2,2,2-trifluoroacetate] the IC50 [1] was < 100 nM and the EC50 (A549 cells) was 100 to 500 nM.
With `Nc1nnc(C2CCN(c3ccc(NC(=O)Cc4cccc(OC(F)(F)F)c4)nn3)C2)s1` (stereo not drawn) [Example 19, N-(6-(3-(5-amino-1,3,4-thiadiazol-2-yl)pyrrolidin-1-yl)pyridazin-3-yl)-2-(3-(trifluoromethoxy)phenyl)acetamide] the IC50 [1] was 100 to 500 nM and the EC50 (A549 cells) was 500 to 5000 nM.
In the case of `O=C(Cc1cccc(OC(F)(F)F)c1)Nc1ccc(N2CCC(c3nnc(NC(=O)Cc4ccccc4F)s3)C2)nn1` (stereo not drawn) [Example 20, 2-(2-fluorophenyl)-N-(5-(1-(6-(2-(3-(trifluoromethoxy)phenyl)acetamido)pyridazin-3-yl)pyrrolidin-3-yl)-1,3,4-thiadiazol-2-yl)acetamide 2,2,2-trifluoroacetate], the IC50 [1] is reported as < 100 nM and the EC50 (A549 cells) is reported as 100 to 500 nM.
`O=C(Cc1cccc(OC(F)(F)F)c1)Nc1ccc(C2CCN(c3nnc(NC(=O)Cc4ccccn4)s3)C2)nn1` (stereo not drawn) [Example 21, 2-(pyridin-2-yl)-N-(5-(3-(6-(2-(3-(trifluoromethoxy)phenyl)acetamido)pyridazin-3-yl)pyrrolidin-1-yl)-1,3,4-thiadiazol-2-yl)acetamide] was tested, and the IC50 [1] was < 100 nM and the EC50 (A549 cells) was 100 to 500 nM.
In the case of `O=C(Cc1cccc(OC(F)(F)F)c1)Nc1ccc(C2CCN(c3nnc(C(=O)NCc4ccccn4)s3)C2)nn1` (stereo not drawn) [Example 22, N-(pyridin-2-ylmethyl)-5-(3-(6-(2-(3-(trifluoromethoxy)phenyl)acetamido)pyridazin-3-yl)pyrrolidin-1-yl)-1,3,4-thiadiazole-2-carboxamide], the IC50 [1] is reported as < 100 nM and the EC50 (A549 cells) is reported as < 100 nM.
`O=C(Cc1cccc(OC(F)(F)F)c1)Nc1ccc(N2CCCC(c3nnc(NC(=O)Cc4ccccc4F)s3)C2)nn1` (stereo not drawn) [Example 23, 2-(2-fluorophenyl)-N-(5-(1-(6-(2-(3-(trifluoromethoxy)phenyl)acetamido)pyridazin-3-yl)piperidin-3-yl)-1,3,4-thiadiazol-2-yl)acetamide] was tested, and the IC50 [1] was < 100 nM and the EC50 (A549 cells) was 100 to 500 nM.
With `Cn1cc(CC(=O)Nc2nnc(C3CCCN(c4ccc(NC(=O)Cc5cccc(OC(F)(F)F)c5)nn4)C3)s2)cn1` (stereo not drawn) [Example 24, 2-(1-Methyl-1H-pyrazol-4-yl)-N-(5-(1-(6-(2-(3-(trifluoromethoxy)phenyl)acetamido)pyridazin-3-yl)piperidin-3-yl)-1,3,4-thiadiazol-2-yl)acetamide] the IC50 [1] was < 100 nM and the EC50 (A549 cells) was 500 to 5000 nM.
Molecule `CC(=O)Nc1nnc(C2CCCN(c3nnc(NC(=O)Cc4cccc(OC(F)(F)F)c4)s3)C2)s1` (stereo not drawn) [Example 25, N-(5-(3-(5-acetamido-1,3,4-thiadiazol-2-yl)piperidin-1-yl)-1,3,4-thiadiazol-2-yl)-2-(3-(trifluoromethoxy)phenyl)acetamide] has an IC50 [1] of 100 to 500 nM and an EC50 (A549 cells) of 500 to 5000 nM.
For `O=C(Cc1ccccn1)Nc1nnc(C2CCCN(c3nnc(NC(=O)Cc4cccc(OC(F)(F)F)c4)s3)C2)s1` (stereo not drawn) [Example 26, 2-(pyridin-2-yl)-N-(5-(1-(5-(2-(3-(trifluoromethoxy)phenyl)acetamido)-1,3,4-thiadiazol-2-yl)piperidin-3-yl)-1,3,4-thiadiazol-2-yl)acetamide], the IC50 [1] was < 100 nM and the EC50 (A549 cells) was 100 to 500 nM.
For `CC(=O)Nc1nnc(N2CCC(c3ccc(NC(=O)Cc4cccc(OC(F)(F)F)c4)nn3)C2)s1` (stereo not drawn) [Example 27, N-(6-(1-(5-acetamido-1,3,4-thiadiazol-2-yl)pyrrolidin-3-yl)pyridazin-3-yl)-2-(3-(trifluoromethoxy)phenyl)acetamide], the IC50 [1] was < 100 nM and the EC50 (A549 cells) was 100 to 500 nM.
In the case of `CC(=O)Nc1nnc(C2CCN(c3ccc(NC(=O)Cc4cccc(OC(F)(F)F)c4)nn3)C2)s1` (stereo not drawn) [Example 29, N-(6-(3-(5-acetamido-1,3,4-thiadiazol-2-yl)pyrrolidin-1-yl)pyridazin-3-yl)-2-(3-(trifluoromethoxy)phenyl)acetamide], the IC50 [1] is reported as < 100 nM and the EC50 (A549 cells) is reported as 100 to 500 nM.
With `O=C(Cc1ccccn1)Nc1nnc(C2CCN(c3nnc(NC(=O)Cc4cccc(OC(F)(F)F)c4)s3)C2)s1` (stereo not drawn) [Example 32, 2-(pyridin-2-yl)-N-(5-(1-(5-(2-(3-(trifluoromethoxy)phenyl)acetamido)-1,3,4-thiadiazol-2-yl)pyrrolidin-3-yl)-1,3,4-thiadiazol-2-yl)acetamide] the IC50 [1] was 100 to 500 nM and the EC50 (A549 cells) was 500 to 5000 nM.
`O=C(Cc1cccc(OC(F)(F)F)c1)Nc1ccc(N2CCC(c3nnc(NC(=O)Cc4ccc(F)cc4F)s3)C2)nn1` (stereo not drawn) [Example 33, 2-(2,4-difluorophenyl)-N-(5-(1-(6-(2-(3-(trifluoromethoxy)phenyl)acetamido)pyridazin-3-yl)pyrrolidin-3-yl)-1,3,4-thiadiazol-2-yl)acetamide] was tested, and the IC50 [1] was < 100 nM and the EC50 (A549 cells) was 100 to 500 nM.
`O=C(Cc1cccc(OC(F)(F)F)c1)Nc1ccc(N2CCC(c3nnc(NC(=O)CC4CCCCO4)s3)C2)nn1` (stereo not drawn) [Example 34, 2-(tetrahydro-2H-pyran-2-yl)-N-(5-(1-(6-(2-(3-(trifluoromethoxy)phenyl)acetamido)pyridazin-3-yl)pyrrolidin-3-yl)-1,3,4-thiadiazol-2-yl)acetamide] was tested, and the IC50 [1] was < 100 nM and the EC50 (A549 cells) was < 100 nM.
`O=C(Cc1cccc(OC(F)(F)F)c1)Nc1ccc(N2CCC(c3nnc(NC(=O)Cc4noc5ccccc45)s3)C2)nn1` (stereo not drawn) [Example 36, 2-(benzo[d]isoxazol-3-yl)-N-(5-(1-(6-(2-(3-(trifluoromethoxy)phenyl)acetamido)pyridazin-3-yl)pyrrolidin-3-yl)-1,3,4-thiadiazol-2-yl)acetamide] was tested, and the IC50 [1] was < 100 nM and the EC50 (A549 cells) was 100 to 500 nM.
`Cn1ccc(CNC(=O)c2nnc(N3CCC(c4ccc(NC(=O)Cc5ccccn5)nn4)C3)s2)n1` (stereo not drawn) [Example 37, N-((1-methyl-1H-pyrazol-3-yl)methyl)-5-(3-(6-(2-(pyridin-2-yl)acetamido)pyridazin-3-yl)pyrrolidin-1-yl)-1,3,4-thiadiazole-2-carboxamide] was tested, and the IC50 [1] was < 100 nM and the EC50 (A549 cells) was 100 to 500 nM.

— patent US10738043B2, “GLS1 inhibitors for treating disease” (Board of Regents, The University of Texas System, priority 2015, dated 2020)
